The results in this text go back to publication PMC12615753, “Glutathione as a taste modulator: molecular mechanisms of interaction with umami and sweet taste receptors” (Food Chemistry: Molecular Sciences, 2025).

In this test the target is T1, hTAS1R2/hTAS1R3 (Homo sapiens, UniProt Q7RTX0+Q8TE23).
T1 construct: expressed in transfected cells
T1 sequence (Q8TE23 20-839): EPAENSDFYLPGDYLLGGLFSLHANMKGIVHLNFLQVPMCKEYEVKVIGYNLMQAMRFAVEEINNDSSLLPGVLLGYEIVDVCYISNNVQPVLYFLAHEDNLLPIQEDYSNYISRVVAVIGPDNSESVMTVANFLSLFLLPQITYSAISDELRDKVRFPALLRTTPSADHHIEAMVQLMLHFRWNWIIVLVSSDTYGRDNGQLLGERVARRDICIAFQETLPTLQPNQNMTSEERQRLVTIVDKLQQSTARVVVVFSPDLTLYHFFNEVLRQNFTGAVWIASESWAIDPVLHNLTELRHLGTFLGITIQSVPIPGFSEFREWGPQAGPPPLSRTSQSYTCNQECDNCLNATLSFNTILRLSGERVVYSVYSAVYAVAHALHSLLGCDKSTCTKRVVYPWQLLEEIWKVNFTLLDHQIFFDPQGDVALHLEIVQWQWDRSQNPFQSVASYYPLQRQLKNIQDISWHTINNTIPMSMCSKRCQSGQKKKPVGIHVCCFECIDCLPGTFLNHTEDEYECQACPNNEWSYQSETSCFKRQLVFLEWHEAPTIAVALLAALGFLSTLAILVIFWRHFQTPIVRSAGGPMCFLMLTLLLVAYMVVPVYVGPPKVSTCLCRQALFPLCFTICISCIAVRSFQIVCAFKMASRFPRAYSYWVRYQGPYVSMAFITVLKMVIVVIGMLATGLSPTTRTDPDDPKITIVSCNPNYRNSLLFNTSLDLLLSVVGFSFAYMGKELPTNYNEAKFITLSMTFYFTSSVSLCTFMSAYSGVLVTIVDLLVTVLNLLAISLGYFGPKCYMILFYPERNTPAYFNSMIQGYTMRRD
T1 sequence (Q7RTX0 21-852): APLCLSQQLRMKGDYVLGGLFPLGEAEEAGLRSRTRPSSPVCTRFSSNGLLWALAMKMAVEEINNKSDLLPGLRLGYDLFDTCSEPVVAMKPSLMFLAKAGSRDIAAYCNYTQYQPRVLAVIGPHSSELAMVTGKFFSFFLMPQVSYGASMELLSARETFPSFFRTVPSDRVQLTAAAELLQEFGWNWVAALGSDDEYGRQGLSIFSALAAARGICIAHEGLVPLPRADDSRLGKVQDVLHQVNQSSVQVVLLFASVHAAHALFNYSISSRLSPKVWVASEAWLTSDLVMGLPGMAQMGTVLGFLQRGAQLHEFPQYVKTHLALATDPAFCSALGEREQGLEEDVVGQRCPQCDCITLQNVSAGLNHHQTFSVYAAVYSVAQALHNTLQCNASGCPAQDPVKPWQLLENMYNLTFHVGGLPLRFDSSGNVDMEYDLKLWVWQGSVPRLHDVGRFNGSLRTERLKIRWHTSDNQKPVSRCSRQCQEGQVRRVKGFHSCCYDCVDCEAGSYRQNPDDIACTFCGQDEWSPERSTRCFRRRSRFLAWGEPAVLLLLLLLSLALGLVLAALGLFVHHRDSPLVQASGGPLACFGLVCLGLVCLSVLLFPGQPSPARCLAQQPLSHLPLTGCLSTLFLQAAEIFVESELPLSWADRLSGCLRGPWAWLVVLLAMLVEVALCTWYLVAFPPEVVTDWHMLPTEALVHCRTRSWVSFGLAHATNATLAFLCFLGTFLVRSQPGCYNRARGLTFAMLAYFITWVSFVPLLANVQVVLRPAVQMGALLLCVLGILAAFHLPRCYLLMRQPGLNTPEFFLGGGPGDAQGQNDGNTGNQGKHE
Put plainly: Calcium assay in transfected HEK293T/17 cells, sweet taste receptor. In kind it is cell-based. To be noted: for EC50: agonist alone, Fig. 2.

Method: HEK293T/17 cells (ATCC CRL-11268) were seeded into clear bottom black 96-well plates coated with poly-D-lysine at a density of 32500 cells/well in 100 μL of DMEM containing 4.5 g/L glucose and supplemented with penicillin/streptomycin, 2 mM GlutaMAX and 10 % dialyzed fetal bovine serum. The plates were incubated for 24 h at 37 °C and 7.3 % CO2 in a humidified atmosphere. After incubation, using Fugene® 4 K (0.46 μL/well, Promega, Illkirch, France), the cells were transiently transfected with pcDNA3-hTAS1R1-WT (60 ng/well) or TAS1R1 mutants, pcDNA4-rTAS1R3 (60 ng/well), pcDNA3-Gα15i2 (10 ng/well), and pGP-CMV-GCaMP6s (Addgene #40753; 10 ng/well) as a genetically encoded calcium indicator. Twenty-four hours after transfection, the HEK293T/17 cells were rinsed with 100 μL of C1 buffer (130 mM NaCl, 5 mM KCl, 10 mM HEPES, 2 mM CaCl2, and 5 mM sodium pyruvate, pH 7.4). For each molecule tested, a semi-logarithmic concentration range was created consisting of seven increasing concentrations and a negative control (zero dose) made of buffer C1. […] After 20 s of basal fluorescence calcium measurement, the cells were stimulated via automatic injection of a range of compounds in eight wells, and the signal emission was recorded for an additional 70 s, via a FlexStation 3® fluorometric microplate reader (Molecular Devices, San Jose, CA, USA). […] The emitted fluorescence was measured at a wavelength of 510 nm after excitation at 488 nm. […] For each well, the decrease in the raw fluorescence as the relative fluorescence changed was calculated as ΔF/F0. Replicates were averaged for the wells subjected to the same stimuli, the background signal was subtracted, and the fluorescence changes in mock-transfected cells were subtracted. The half-maximal effective concentration (EC50) and maximal signal amplitude (max ∆F/F0) were calculated via non-linear regression of the sigmoidal function four-parameter logistic equation [f(x) = min + (max − min)/(1 + (x/EC50)^nH)] via SigmaPlot 15.0 software (Grafiti LLC, Palo Alto, CA, USA). […]

The EC50 is the concentration that produces a half-maximal response. Consider `OC[C@H]1O[C@H](O[C@]2(CCl)O[C@H](CCl)[C@@H](O)[C@@H]2O)[C@H](O)[C@@H](O)[C@H]1Cl` [sucralose, reference compound], for which the EC50 is 61 ± 2 µM.

For `N[C@@H](CCC(=O)N[C@@H](CS)C(=O)NCC(=O)O)C(=O)O` [GSH, γ-L-glutamyl-L-cysteinyl-glycine], the “effect of 10 mM GSH on the response to sucralose” value is on record as “unaffected” and the 50% effective concentration (EC50) came to 591 ± 344 µM.
